The results in this text go back to patent US20070043091A1, “Kv1.5-BLOCKER FOR THE SELECTIVE INCREASE OF ATRIAL CONTRACTILITY AND TREATMENT OF CARDIAC [sequence]” (SANOFI-AVENTIS DEUTSCHLAND GMBH, priority 2004, published 2007).

“Also recorded” adds a separate entry of the source.

Experiment [1] relates to pig left atrium. Kind of experiment: Effect of Kv1.5 blockers on atrial contractility in anesthetized pigs, sinus rhythm. Type of experiment: in vivo, German Landrace pigs. The following applies: 1 mg/kg i.v. As to the method: (§1) A) Test of the Effect of Kv1.5 Blockers on Atrial Contractility in Anesthetized Pigs
(§2) Material and methods: German Landrace pigs were premedicated by an intramuscular injection of 2.5-3.5 mg/kg each of xylazine, tiletamine and zolazepam in a mixing syringe. The anesthesia was induced with pentobarbital (approx. 30 mg/kg i.v.) and maintained by continuous infusion of pentobarbital (12-17 mg/kg/h).
(§3) After induction of anesthesia and after a tracheotomy, the animals were intubated and ventilated with a mixture of ambient air with 40% oxygen.
(§4) The ventilation rate and volume were governed by regularly measured blood gas and pH levels. The body temperature was continuously recorded and controlled by a heated underlay and/or red light lamp and/or warming of the breathed air to keep it constant (about 37-38° C.).
The following blood vessels of the pigs were exposed and cannulated:
External jugular vein (anesthesia infusion), carotid artery (introduction of a tip manometer catheter in the left ventricle to record the pressure there), lateral saphenous vein (dosage of test substance), epigastrica cranialis superficialis vein (fluid infusion), femoral artery (peripheral blood pressure recording) and femoral vein (introduction of MAP catheter right atrium).
The parameters responsible for the contractility are determined using two ultrasonic sensors on the left atrium (P/N JP 5-2, Triton Technology®) [references 1 and 2]. These two piezoelectric sensors are implanted in the cranio-caudal direction through punctuate incisions at the extreme edge of the atrium. The incisions were each closed with a U stitch (2-0 Vicryl®).
The two ultrasonic sensors were than connected to the evaluation unit. In addition, a pressure-measuring catheter was implanted at the ventral edge of the atrium in order to record the left atrial pressure.
The left atrial systolic shortening (LASS) was determined from the atrial diameter at the start of the active atrial pressure curve and the minimum diameter. Since the atrial contractility depends on the initial extension, the left atrial systolic shortening was divided by the value at the start of active atrial contraction (LASS index). The maximum steepness of the contraction curve was determined by importing the raw data points to Microsoft Excel for calculation of the maximum steepness of the curve. In order to exclude breathing-related variations, at least 10 cardiac cycles were analyzed. This parameter, which likewise indicates an improved contractility, is referred to as LASS steepness.
Recording of the initial values was followed by infusion for 10 minutes of the vehicle which was used later and is composed of 0.5 ml of DMSO, 2.5 ml of PEG and 2.0 ml of glucose G20. […]

The test system of experiment [2] is pig left atrium. Kind of experiment: Effect on atrial contractility in anesthetized pigs after one hour of induced atrial fibrillation. The experiment is classed as in vivo, German Landrace pigs. As to the method:
as §1, §2, §3
In a further series of experiments, the test substance was administered only after one hour of atrial fibrillation induced by persistent high-frequency stimulation (1200 beats/min) of the right atrium. In this case, the parameters of atrial contractility were recorded before/after the period of fibrillation and after administration of the test substance and compared with those after the vehicle control.
as §4
The following blood vessels of the pigs were exposed and cannulated: […]
The parameters responsible for the contractility are determined using two ultrasonic sensors on the left atrium (P/N JP 5-2, Triton Technology®) [references 1 and 2]. […]
The left atrial systolic shortening (LASS) was determined from the atrial diameter at the start of the active atrial pressure curve and the minimum diameter. […] The maximum steepness of the contraction curve was determined by importing the raw data points to Microsoft Excel for calculation of the maximum steepness of the curve. In order to exclude breathing-related variations, at least 10 cardiac cycles were analyzed. […]

Experiment [3] relates to pigs with pericardial air instillation. Description: Left ventricular ejection (cardiac output) in a model of diastolic dysfunction, pericardial air instillation. The experiment is classed as in vivo. The conditions noted are these: for Cardiac output, % of the initial value before example 1 / Cardiac output, % of the initial value before instillation / Cardiac output, average: 3 mg/kg i.v. over 30 min. As to the method:
B) Improved Left Ventricular Ejection after Kv1.5 Blockers in a Model of Diastolic Dysfunction Methods: Pigs were anesthetized as described in A) and thoracotomized. A flow sensor was attached over the aorta to measure the cardiac output. In a stable hemodynamic situation, air (approx. 30 ml) was instilled into the pericardial using a cannula. The intention of pericardial air instillation is to impede ventricular filling, which eventually leads to a decreased cardiac output (diastolic heart failure). […] The pericardial air instillation leads to a distinct reduction in the cardiac output (table 3).

The mark [4] stands for this setting: time not given (start of infusion).

Consider `CCCCS(=O)(=O)Nc1ccccc1C(=O)N[C@H](CC)c1ccc(OC)nc1` (single isomer, unassigned) [Example 5], for which the “LASS, increase in %” value in experiment [1] (after vs before administration) is on record as 68%. Further, in experiment [1] (n = 8), the “LASS, absolute values, after administration” value is given as 8.25 ± 1.43.

`COc1ccc(CC(=O)NCc2ccccc2-c2ccccc2C(=O)NCCc2cccnc2)cc1` [Example 1, N-(2-pyridin-3-ylethyl)-2′-{[2-(4-methoxyphenyl)acetylamino]-methyl}biphenyl-2-carboxamide]: the “LACC steepness, absolute value, after administration” value in experiment [1] is -0.152 ± 0.02 cm/s. Also, the “LACC steepness, increase in %” value in experiment [1] (after vs before administration) is “+38.2%”. The “LACC steepness, absolute values” in experiment [2] (1 mg/kg i.v., after 1 hour atrial fibrillation) is -0.197 cm/s. The “LACC steepness, in % of the initial value” in experiment [2] (1 mg/kg i.v., after 1 hour atrial fibrillation, initial value = before AF) is 112.6%. Moreover, in experiment [2] (after one hour of atrial fibrillation), the “atrial function / contractility, in words” value is “statistically significant improvement; also recorded: above the base line level”. Further, the “Cardiac output, % of the initial value before example 1” value in experiment [3] (2′) was 102%; in experiment [3] (5′), 104%; in experiment [3] (10′), 111%; in experiment [3] (15′) it was 117%; in experiment [3] (20′) it was 121%; in experiment [3] (25′) it was 123%. For the same molecule, the “Cardiac output, % of the initial value before example 1” value in experiment [3] (30′) is 125%; in experiment [3] (35′), 120%; in experiment [3] (40′) it was 117%; in experiment [3] (50′), 116%; in experiment [3] (60′), 111%; in experiment [3] (70′) it was 108%. Also, in experiment [3] (setting [4]), the “Cardiac output, % of the initial value before example 1” value was 100%. The “Cardiac output, % of the initial value before instillation” value in experiment [3] (2′) is reported as 72%; in experiment [3] (5′), 73%; in experiment [3] (10′), 78%; in experiment [3] (15′) it was 82%; in experiment [3] (20′), 84%; in experiment [3] (25′), 86%. The “Cardiac output, % of the initial value before instillation” value in experiment [3] (30′) is given as 87%; in experiment [3] (35′), 85%; in experiment [3] (40′) it was 83%; in experiment [3] (50′) it was 82%; in experiment [3] (60′) it was 79%; in experiment [3] (70′), 78%. For the same molecule, the “Cardiac output, % of the initial value before instillation” value in experiment [3] (setting [4]) was determined as 71%. The “Cardiac output, average” value came to 1.55 L/min in experiment [3] (2′); 1.58 L/min in experiment [3] (5′); 1.69 L/min in experiment [3] (10′); 1.78 L/min in experiment [3] (15′); 1.84 L/min in experiment [3] (20′); 1.88 L/min in experiment [3] (25′). Moreover, the “Cardiac output, average” value stood at 1.90 L/min in experiment [3] (30′); 1.83 L/min in experiment [3] (35′); 1.79 L/min in experiment [3] (40′); 1.76 L/min in experiment [3] (50′); 1.69 L/min in experiment [3] (60′); 1.65 L/min in experiment [3] (70′). In experiment [3] (setting [4]), the “Cardiac output, average” value turned out to be 1.53 L/min. For the same molecule, the “maximum increase in the reduced cardiac output” value in experiment [3] (3 mg/kg infused in 30 min, n=11) is recorded as 25%.
